Experiments:
Format in all cases: toxicity, cell-based
[1] = Cytotoxicity against human MCF7 cells assessed as reduction in cell viability after 24 hrs by SRB assay
[2] = Cytotoxicity against human HepG2 cells assessed as reduction in cell viability after 24 hrs by SRB assay
[3] = Cytotoxicity against human SF-268 cells assessed as reduction in cell viability after 24 hrs by SRB assay
[4] = Cytotoxicity against human A549 cells assessed as reduction in cell viability after 24 hrs by SRB assay

Measured: IC50 at 24 h

CC1=CC[C@H]2[C@]3(O[C@H]4[C@]2(C)[C@@H](O)C[C@@]2(C)[C@H](C)CC=C3[C@@]42O)[C@H]1O
> 10 µM: all assays above

C/C1=C/C[C@@]2(C)[C@H](C)CC=C([C@@H]3[C@@H]1CC[C@](C)(O)[C@H]3O)[C@H]2C
> 10 µM: all assays above

C[C@@H]1CC=C2[C@H]3[C@H](O)[C@@](C)(O)CC[C@@H]3[C@@](C)(O)CC[C@]1(C)[C@@H]2C
> 10 µM: all assays above

CC1=CC[C@@H]2[C@@]3(C)CC[C@]4(C)C5=C([C@@H](O)C[C@H]4C)[C@@]2(O[C@H]53)[C@H]1O
> 10 µM: all assays above

CC1=CC[C@@H]2[C@@]3(C)CC[C@@]4(C)[C@H](C)[C@@H](O)C=C5[C@@]2(O[C@@H]3[C@]54O)[C@H]1O
> 10 µM: all assays above

C=C1CC[C@@]2(C)[C@H](C)C[C@@H]3O[C@]3([C@@H]3[C@@H]1CC[C@](C)(O)[C@H]3O)[C@H]2C
> 10 µM: all assays above

C=C1CC[C@@]2(C)[C@H](C)CC=C([C@@H]3[C@@H]1CC[C@](C)(O)[C@H]3O)[C@H]2C
> 10 µM: all assays above

CC1=CC[C@@H]2[C@@]3(C)CC[C@@]4(C)[C@H](C)CC(=O)[C@H]5[C@@]2(O[C@@H]3[C@]54O)[C@H]1O
> 10 µM: all assays above
